Source: patent US8629277B2, “Styrenyl 1,2,4-oxadiazole compounds” (Piramal Enterprises Limited, priority 2010, dated 2014)
Structures can show the parent of a compound that is named as a salt. Where two headings read alike, the source gives them in different places.

Key:
Ba/F3 Bcr-Abl/WT = biological target: T1, Ba/F3 Bcr-Abl/WT (Homo sapiens, UniProt P00519); experiment: Cell proliferation and cytotoxicity CCK-8 assay; type: cell-based; settings: imatinib sensitive cell line; CCK-8, 72 h; read-out: Inhibitory concentrations (IC50) Ba/F3 Bcr-Abl/WT
T1 construct: fused on or other part: P11274 (Breakpoint cluster region protein)
Description: (§1) Cell Proliferation and Cytotoxicity CCK-8 Assay:
(§2) Cell Counting Kit-8 (CCK-8) assay is a sensitive colorimetric assay for the determination of number of viable cells in cell proliferation and cytotoxicity assays. Cell Counting Kit-8 (CCK-8) utilizes Dojindo's highly water-soluble tetrazolium salt. The amount of the formazan dye generated by dehydrogenases in cells is directly proportional to the number of living cells.
(§3) The cell lines described in Table 1 were used to test the antiproliferative activity of the compounds of the present invention.
(§4) Cells were seeded at a density of ˜5×10^3 per well (0.09 mL) in a transparent 96-well tissue culture plate (NUNC, USA) and allowed to incubate at 37° C., 5% CO2 incubator for 2-6 h. Different concentrations of compounds of the present invention were added to the wells of the culture plate in triplicate. […] Plates were further incubated in an incubator at 37° C. in presence of 5% CO2 for 72 h. 10 μL of the CCK-8 solution was added to each well and plate was incubated for 1-4 h in the incubator. The absorbance was measured at 450 nm using a microplate reader. The percent inhibition and IC50 were calculated in comparison with control values.

Ba/F3 Bcr-Abl/T315I = Ba/F3 Bcr-Abl/T315I (Homo sapiens, UniProt P00519, T315I, cells depend on it); settings: read-out: Inhibitory concentrations (IC50) Ba/F3 Bcr-Abl/T315I; imatinib resistant cell line; CCK-8, 72 h
Description: as §1, §2, §3, §4

K562 [1] = experiment: Cell proliferation and cytotoxicity CCK-8 assay; type: cell-based, human; settings: imatinib sensitive cell line K562, CCK-8, 72 h, read-out: Inhibitory concentrations (IC50) K562
K562 [2] = experiment: Flow cytometric analysis of apoptosis (PI staining); type: cell-based, human
Procedure: (§5) Effect of the Compounds of Present Invention in Bcr-Abl Mutated Imatinib Mesylate-Resistant Cell Lines on Cell Cycle and Apoptosis Using Flow Cytometry.
(§6) The assay was carried out as in reference, FEBS Letters, 2007, 581, 7, 1329-1334. […] At the end of incubation, cells were harvested by centrifugation at 1000 rpm for 10 minutes, washed with phosphate buffered saline (PBS) and gradually resuspended in 70% ice-cold ethanol (to facilitate the permeablisation of stains). Cell suspension was stored for a minimum period of 4 h before staining with propidium iodide (PI). Fixed cells were stained with PI (80 μg/mL) in presence of RNase A (50 μg/mL), and read on Becton Dickinson FACS Calibur (USA) for cell cycle analysis.

Ba/F3 = experiment: as above; type: cell-based
Procedure: as §5, §6

Y253 = experiment: as above; type: cell-based
Procedure: as §5, §6

T315I = experiment: as above; type: cell-based
Procedure: as §5, §6

E255V = experiment: as above; type: cell-based
Procedure: as §5, §6

SMILES | GI50 (Ba/F3 Bcr-Abl/WT) | GI50 (Ba/F3 Bcr-Abl/T315I) | IC50 (K562 [1]; Homo sapiens) | further results
Cc1noc(C=Cc2ccc(O)c(O)c2)n1 [Compound of Example 1, 4-[2-(3-Methyl-[1,2,4]oxadiazol-5-yl)-vinyl]-benzene-1,2-diol] | 11 to 100 µM | 11 to 100 µM | 11 to 100 µM | 
CCc1noc(C=Cc2ccc(O)c(O)c2)n1 [Compound of Example 2, 4-[2-(3-Ethyl-[1,2,4]oxadiazol-5-yl)-vinyl]-benzene-1,2-diol] | < 10 µM | < 10 µM | < 10 µM | 
CCCc1noc(C=Cc2ccc(O)c(NS(C)(=O)=O)c2)n1 [Compound of Example 10, N-{2-Hydroxy-5-[2-(3-propyl-[1,2,4]oxadiazol-5-yl)-vinyl]-phenyl}-methanesulfonamide] | 11 to 100 µM | 11 to 100 µM | > 100 µM | 
CCCc1nc(C=Cc2ccc(O)c(N)c2)no1 [Compound of Example 12, 2-Amino-4-[2-(5-propyl-[1,2,4]oxadiazol-3-yl)-vinyl]-phenol] | 11 to 100 µM | < 10 µM | 11 to 100 µM | 
CN1CCC(c2noc(C=Cc3ccc(O)c(O)c3)n2)CC1 [Compound of Example 20, 4-[2-(3-Piperidin-4,1-methyl-[1,2,4]oxadiazol-5-yl)-vinyl]-benzene-1,2-diol] | 11 to 100 µM | 11 to 100 µM |  | IC50 (K562 [1]): 11 to 100 µM
CC(C)N1CCC(Cc2noc(C=Cc3ccc(O)c(O)c3)n2)CC1 [Compound of Example 22, 4-{2-[3-(1-Isopropyl-piperidin-4-ylmethyl)-[1,2,4]oxadiazol-5-yl]-vinyl}-benzene-1,2-diol] | 11 to 100 µM | 11 to 100 µM | 11 to 100 µM | 
CN(C)CCN1CCC(Cc2noc(C=Cc3ccc(O)c(O)c3)n2)CC1 [Compound of Example 24, 4-(2-{3-[1-(2-Dimethylamino-ethyl)-piperidin-4-ylmethyl]-[1,2,4]oxadiazol-5-yl}-vinyl)-benzene-1,2-diol] | 11 to 100 µM | 11 to 100 µM | 11 to 100 µM | 
Oc1ccc(C=Cc2nc(CC3CCN(Cc4ccccc4)CC3)no2)cc1O [Compound of Example 31, 4-{2-[3-(1-Benzyl-piperidin-4-ylmethyl)-[1,2,4]oxadiazol-5-yl]-vinyl}-benzene-1,2-diol] | 11 to 100 µM | 11 to 100 µM | 11 to 100 µM | 
CCCCCCCCCc1noc(C=Cc2ccc(O)c(O)c2)n1 [Compound of Example 34, 4-[2-(3-Nonyl-[1,2,4]oxadiazol-5-yl)-vinyl]-benzene-1,2-diol] | < 10 µM | < 10 µM | 11 to 100 µM | 
Oc1ccc(C=Cc2nc(C3CC3)no2)cc1O [Compound of Example 37, 4-[2-(3-Cyclopropyl-[1,2,4]oxadiazol-5-yl)-vinyl]-benzene-1,2-diol] | < 10 µM | < 10 µM | < 10 µM | 
CCCCCc1noc(C=Cc2ccc(O)c(O)c2)n1 [Compound of Example 40, 4-[2-(3-Pentyl-[1,2,4]oxadiazol-5-yl)-vinyl]-benzene-1,2-diol] | < 10 µM | < 10 µM | < 10 µM | 
CCCCCCc1noc(C=Cc2ccc(O)c(O)c2)n1 [Compound of Example 43] | < 10 µM | < 10 µM |  | IC50 (K562 [1]): < 10 µM
Oc1ccc(C=Cc2nc(CC3CCCCC3)no2)cc1O [Compound of Example 46, 4-[2-(3-Cyclohexylmethyl-[1,2,4]oxadiazol-5-yl)-vinyl]-benzene-1,2-diol] | < 10 µM | < 10 µM | < 10 µM | 
CCCCCCCCc1noc(C=Cc2ccc(O)c(O)c2)n1 [Compound of Example 49, 4-[2-(3-Octyl-[1,2,4]oxadiazol-5-yl)-vinyl]-benzene-1,2-diol] | < 10 µM | < 10 µM | < 10 µM | 
CCCCCCCc1noc(C=Cc2ccc(O)c(O)c2)n1 [Compound of Example 52, 4-[2-(3-Heptyl-[1,2,4]oxadiazol-5-yl)-vinyl]-benzene-1,2-diol] | < 10 µM | < 10 µM | < 10 µM | 
Oc1ccc(C=Cc2nc(-c3cccnc3)no2)cc1O [Compound of Example 55, 4-[2-(3-Pyridin-3-yl-[1,2,4]oxadiazol-5-yl)-vinyl]-benzene-1,2-diol] | < 10 µM | < 10 µM | 11 to 100 µM | 
Oc1ccc(C=Cc2nc(C3CCCCCC3)no2)cc1O [Compound of Example 58, 4-[2-(3-Cycloheptyl-[1,2,4]oxadiazol-5-yl)-vinyl]-benzene-1,2-diol] | < 10 µM | < 10 µM | 11 to 100 µM | 
Oc1ccc(C=Cc2nc(C3CCCCC3)no2)cc1O [Compound of Example 61, 4-[2-(3-Cyclohexyl-[1,2,4]oxadiazol-5-yl)-vinyl]-benzene-1,2-diol] | < 10 µM | < 10 µM | 11 to 100 µM | 
Cc1ccc(NC(=O)c2ccc(CN3CCN(C)CC3)cc2)cc1Nc1nccc(-c2cccnc2)n1 [imatinib mesylate, Imatinib mesylate, reference compound] |  |  |  | % Apoptosis by Flow Cytometry Analysis (K562 [2]; 3X IC50, 96 h time point): 95%; % Apoptosis by Flow Cytometry Analysis (K562 [2]; 5X IC50, 48 h time point): 3.9%; % Apoptosis by Flow Cytometry Analysis (K562 [2]; 5X IC50, 96 h time point): 92.6%; % Apoptosis by Flow Cytometry Analysis (Ba/F3; 3X IC50, 96 h time point): 51%; % Apoptosis by Flow Cytometry Analysis (Ba/F3; 5X IC50, 48 h time point): 40.3%; % Apoptosis by Flow Cytometry Analysis (Ba/F3; 5X IC50, 96 h time point): 31%; % Apoptosis by Flow Cytometry Analysis (Y253; 3X IC50, 96 h time point): 85.2%; % Apoptosis by Flow Cytometry Analysis (Y253; 5X IC50, 48 h time point): 78%; % Apoptosis by Flow Cytometry Analysis (Y253; 5X IC50, 96 h time point): 98.2%; % Apoptosis by Flow Cytometry Analysis (T315I; 3X IC50, 96 h time point): 26.6%; % Apoptosis by Flow Cytometry Analysis (T315I; 5X IC50, 48 h time point): 4.3%; % Apoptosis by Flow Cytometry Analysis (T315I; 5X IC50, 96 h time point): 25.2%; % Apoptosis by Flow Cytometry Analysis (E255V; 3X IC50, 96 h time point): 61%; % Apoptosis by Flow Cytometry Analysis (E255V; 5X IC50, 48 h time point): 96.7%; % Apoptosis by Flow Cytometry Analysis (E255V; 5X IC50, 96 h time point): 98.4%
